Measurements taken from PubChem BioAssay (NCI).
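Test compounds were applied to cells in 96-well plates for 48 hours at 5 doses. At the GI50, growth is halved. At the TGI there is no net growth.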

What was measured:
Test in all cases: growth of human tumour cells (NCI), 48 h
[1] = test system: NCI/ADR-RES ovarian
[2] = test system: MALME-3M melanoma
[3] = test system: HOP-62 NSCLC
[4] = test system: NCI-H460 lung
[5] = test system: SF-268 CNS
[6] = test system: HT29 colon
[7] = test system: UACC-257 melanoma
[8] = test system: UO-31 renal
[9] = test system: SR leukemia
[10] = test system: RPMI-8226 leukemia
[11] = test system: SF-295 CNS
[12] = test system: BT-549 breast
[13] = test system: SF-539 CNS
[14] = test system: T-47D breast
[15] = test system: A549 NSCLC
[16] = test system: RXF 393 renal
[17] = test system: CCRF-CEM leukemia
[18] = test system: HOP-92 NSCLC
[19] = test system: SW-620 colon
[20] = test system: NCI-H226 lung
[21] = test system: NCI-H23 lung
[22] = test system: ACHN renal
[23] = test system: HCC-2998 colon
[24] = test system: NCI-H522 lung
[25] = test system: MDA-MB-231 breast
[26] = test system: IGROV1 ovarian
[27] = test system: HL-60(TB) leukemia
[28] = test system: COLO 205 colon
[29] = test system: U251 CNS
[30] = test system: CAKI-1 renal
[31] = test system: HCT-116 colon
[32] = test system: SN12C renal
[33] = test system: K-562 leukemia
[34] = test system: SK-MEL-2 melanoma
[35] = test system: SK-MEL-28 melanoma
[36] = test system: HCT-15 colon
[37] = test system: LOX IMVI melanoma
[38] = test system: MDA-MB-435
[39] = test system: OVCAR-4 ovarian
[40] = test system: HS 578T breast
[41] = test system: M14 melanoma
[42] = test system: OVCAR-8 ovarian
[43] = test system: MCF7 breast
[44] = test system: EKVX NSCLC
[45] = test system: MOLT-4 leukemia
[46] = test system: TK-10 renal
[47] = test system: A498 renal
[48] = test system: DU-145 prostate
[49] = test system: SNB-75 CNS
[50] = test system: OVCAR-5 ovarian
[51] = test system: KM12 colon
[52] = test system: SK-MEL-5 melanoma
[53] = test system: UACC-62 melanoma
[54] = test system: OVCAR-3 ovarian
[55] = test system: PC-3 prostate
[56] = test system: SK-OV-3 ovarian

CN(C)CCCn1c2c(c3ccncc3c1=O)C(=O)c1ccccc1-2
GI50 [1]: 803 nM | TGI [1]: 11600 nM | GI50 [2]: 978 nM | TGI [2]: 2500 nM | GI50 [3]: 862 nM | TGI [3]: 20600 nM | GI50 [4]: 438 nM | TGI [4]: 3630 nM | GI50 [5]: 1470 nM | TGI [5]: 10700 nM | GI50 [6]: 484 nM | TGI [6]: 13100 nM | GI50 [7]: 1680 nM | TGI [7]: 5220 nM | GI50 [8]: 546 nM | TGI [8]: 21000 nM | GI50 [9]: 313 nM | TGI [9]: 11900 nM | GI50 [10]: 1720 nM | TGI [10]: 7620 nM | GI50 [11]: 1060 nM | TGI [11]: 10300 nM | GI50 [12]: 2090 nM | TGI [12]: 13100 nM | GI50 [13]: 714 nM | TGI [13]: 5950 nM | GI50 [14]: 1670 nM | TGI [14]: 21000 nM | GI50 [15]: 1000 nM | TGI [15]: 38600 nM | GI50 [16]: 1140 nM | TGI [16]: 3860 nM | GI50 [17]: 770 nM | TGI [17]: 13000 nM | GI50 [18]: 155 nM | TGI [18]: 2390 nM | GI50 [19]: 410 nM | TGI [19]: 13100 nM | GI50 [20]: 466 nM | TGI [20]: 2470 nM | GI50 [21]: 1080 nM | TGI [21]: 9630 nM | GI50 [22]: 339 nM | TGI [22]: 10400 nM | GI50 [23]: 1380 nM | TGI [23]: 5310 nM | GI50 [24]: 1610 nM | TGI [24]: 11900 nM | GI50 [25]: 1770 nM | TGI [25]: 7700 nM | GI50 [26]: 955 nM | TGI [26]: > 100000 nM | GI50 [27]: 858 nM | TGI [27]: 8660 nM | GI50 [28]: 806 nM | TGI [28]: 14300 nM | GI50 [29]: 757 nM | TGI [29]: 15300 nM | GI50 [30]: 572 nM | TGI [30]: 5530 nM | GI50 [31]: 382 nM | TGI [31]: 21800 nM | GI50 [32]: 958 nM | TGI [32]: 19100 nM | GI50 [33]: 573 nM | TGI [33]: 12300 nM | GI50 [34]: 2180 nM | TGI [34]: 6960 nM | GI50 [35]: 1720 nM | TGI [35]: 4700 nM | GI50 [36]: 513 nM | TGI [36]: 11900 nM | GI50 [37]: 360 nM | TGI [37]: 4950 nM | GI50 [38]: 1550 nM | TGI [38]: 4150 nM | GI50 [39]: 1370 nM | TGI [39]: 8670 nM | GI50 [40]: 1740 nM | TGI [40]: 14300 nM | GI50 [41]: 1600 nM | TGI [41]: 5710 nM | GI50 [42]: 616 nM | TGI [42]: 15300 nM | GI50 [43]: 333 nM | TGI [43]: 14000 nM | GI50 [44]: 7910 nM | TGI [44]: 48300 nM | GI50 [45]: 324 nM | GI50 [46]: 1980 nM | TGI [46]: 24300 nM | GI50 [47]: 2150 nM | TGI [47]: 20000 nM | GI50 [48]: 988 nM | TGI [48]: 10600 nM | GI50 [49]: 1020 nM | TGI [49]: 5880 nM | GI50 [50]: 1820 nM | TGI [50]: 9250 nM | GI50 [51]: 641 nM | TGI [51]: 11500 nM | GI50 [52]: 1070 nM | TGI [52]: 2500 nM | GI50 [53]: 1220 nM | TGI [53]: 3740 nM | GI50 [54]: 1990 nM | TGI [54]: 9600 nM | GI50 [55]: 1140 nM | TGI [55]: 9780 nM | GI50 [56]: 12100 nM | TGI [56]: 65000 nM
